# Experimental data: US20090082358A1, “Vanilloid receptor ligands and their use in treatments” (priority 2007, published 2009)
# Biological target: T1, human TRPM8 (Homo sapiens, UniProt Q7Z2W7)
# T1 construct: expressed in transfected cells; host or cells: CHO cells, T-REx tetracycline-inducible expression system (Invitrogen), co-transfected with pcDNA3.1 aequorin
# Experiment: Luminescence readout assay for measuring intracellular calcium (aequorin), antagonism of cold buffer activation
# Type: cell-based
# Conditions: CHO cells expressing human TRPM8; activation by cold buffer (<10° C.)
# Description: Luminescence readout assay for measuring intracellular calcium. Stable CHO cell lines expressing human TRPM8 were generated using tetracycline inducible T-REx™ expression system from Invitrogen, Inc (Carlsbad, Calif.). […] Twenty four hours before the assay, cells were seeded in 96-well plates and TRP channel expression was induced with 0.5 μg/ml tetracycline.
# T1 sequence (Q7Z2W7 whole entry): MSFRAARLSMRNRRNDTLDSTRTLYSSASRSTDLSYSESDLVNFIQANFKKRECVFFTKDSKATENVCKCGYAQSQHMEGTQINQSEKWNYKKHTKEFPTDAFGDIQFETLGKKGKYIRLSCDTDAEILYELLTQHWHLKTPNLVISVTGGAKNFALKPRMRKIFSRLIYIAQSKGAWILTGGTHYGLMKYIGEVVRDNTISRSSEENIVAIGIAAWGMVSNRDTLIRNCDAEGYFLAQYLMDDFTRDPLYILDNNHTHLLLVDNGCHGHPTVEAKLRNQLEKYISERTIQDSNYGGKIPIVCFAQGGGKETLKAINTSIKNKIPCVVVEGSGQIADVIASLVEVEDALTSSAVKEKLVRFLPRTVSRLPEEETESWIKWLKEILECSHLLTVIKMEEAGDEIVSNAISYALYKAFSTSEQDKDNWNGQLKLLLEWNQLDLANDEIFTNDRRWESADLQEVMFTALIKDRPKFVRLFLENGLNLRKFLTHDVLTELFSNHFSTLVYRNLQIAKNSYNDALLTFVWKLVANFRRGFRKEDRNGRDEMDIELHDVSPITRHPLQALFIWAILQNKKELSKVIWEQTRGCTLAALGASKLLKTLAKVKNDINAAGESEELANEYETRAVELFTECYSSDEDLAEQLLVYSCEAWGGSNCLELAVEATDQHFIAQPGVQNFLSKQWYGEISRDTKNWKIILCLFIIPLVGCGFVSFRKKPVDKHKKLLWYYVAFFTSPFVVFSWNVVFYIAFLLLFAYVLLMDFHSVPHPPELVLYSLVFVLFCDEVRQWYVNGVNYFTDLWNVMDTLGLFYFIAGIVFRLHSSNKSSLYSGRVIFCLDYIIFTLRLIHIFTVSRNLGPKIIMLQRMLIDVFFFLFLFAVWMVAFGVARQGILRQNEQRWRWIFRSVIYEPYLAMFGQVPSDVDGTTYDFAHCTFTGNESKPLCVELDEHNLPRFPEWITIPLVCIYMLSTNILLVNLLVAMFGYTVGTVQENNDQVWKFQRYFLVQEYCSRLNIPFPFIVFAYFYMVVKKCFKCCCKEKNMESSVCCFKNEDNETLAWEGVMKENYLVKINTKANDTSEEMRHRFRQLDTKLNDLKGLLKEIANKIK
row,Compound,IC50 [µM]
1,"O=C(NCCc1ccccc1)N1CCc2cccnc2[C@H]1c1ccc(C(F)(F)F)cc1 [Example 22, (R)—N-phenethyl-8-(4-(trifluoromethyl)phenyl)-5,6-dihydro-1,7-naphthyridine-7(8H)-carboxamide]",< 5
2,"C[C@H](NC(=O)N1CCc2cccnc2[C@H]1c1ccc(C(F)(F)F)cc1)c1ccccc1 [Example 24, (R)—N—((S)-1-phenylethyl)-8-(4-(trifluoromethyl)phenyl)-5,6-dihydro-1,7-naphthyridine-7(8H)-carboxamide]",< 5
3,"CN(C)c1ccc(NC(=O)N2CCc3cccnc3[C@H]2c2ccc(C(F)(F)F)cc2)cc1 [Example 25, (R)—N-(4-(dimethylamino)phenyl)-8-(4-(trifluoromethyl)phenyl)-5,6-dihydro-1,7-naphthyridine-7(8H)-carboxamide]",< 5
4,"C[C@@H](NC(=O)N1CCc2cccnc2[C@H]1c1ccc(C(F)(F)F)cc1)c1ccccc1 [Example 29, (R)—N—((R)-1-phenylethyl)-8-(4-(trifluoromethyl)phenyl)-5,6-dihydro-1,7-naphthyridine-7(8H)-carboxamide]",< 5
5,"O=C(Nc1ccc(-c2ccccc2)cc1)N1CCc2cccnc2[C@H]1c1ccc(C(F)(F)F)cc1 [Example 31, (R)—N-(4-biphenyl)-8-(4-(trifluoromethyl)phenyl)-5,6-dihydro-1,7-naphthyridine-7(8H)-carboxamide]",< 5
6,"O=C(Nc1cccc(F)c1)N1CCc2cccnc2[C@H]1c1ccc(C(F)(F)F)cc1 [Example 33, (R)—N-(3-fluorophenyl)-8-(4-(trifluoromethyl)phenyl)-5,6-dihydro-1,7-naphthyridine-7(8H)-carboxamide]",< 5
7,"O=C(N[C@H]1C[C@H]1c1ccccc1)N1CCc2cccnc2[C@H]1c1ccc(C(F)(F)F)cc1 [Example 36, (R)—N-((1S,2S)-2-phenylcyclopropyl)-8-(4-(trifluoromethyl)phenyl)-5,6-dihydro-1,7-naphthyridine-7(8H)-carboxamide]",< 5
8,"O=C(Nc1ccc2c(c1)OCO2)N1CCc2cccnc2[C@H]1c1ccc(C(F)(F)F)cc1 [Example 37, (R)—N-(benzo[d][1,3]dioxol-5-yl)-8-(4-(trifluoromethyl)phenyl)-5,6-dihydro-1,7-naphthyridine-7(8H)-carboxamide]",< 5
9,"CC(C)NC(=O)N1CCc2nccnc2[C@H]1c1ccc(C(F)(F)F)cc1 [Example 38, (R)—N-Isopropyl-5-(4-(trifluoromethyl)phenyl)-7,8-dihydropyrido[3,4-b]pyrazine-6(5H)-carboxamide]",< 5
10,"O=C(Nc1cccnc1)N1CCc2nccnc2[C@H]1c1ccc(C(F)(F)F)cc1 [Example 39, (R)—N-(Pyridin-3-yl)-5-(4-(trifluoromethyl)phenyl)-7,8-dihydropyrido[3,4-b]pyrazine-6(5H)-carboxamide]",< 5
11,"O=C(Nc1ccc(C(F)(F)F)cc1)N1CCc2cccnc2[C@H]1c1ccc(C(F)(F)F)cc1 [Example 40, (R)—N,8-Bis(4-(trifluoromethyl)phenyl)-5,6-dihydro-1,7-naphthyridine-7(8H)-carboxamide]",< 5
12,"N#Cc1cccc(NC(=O)N2CCc3cccnc3[C@H]2c2ccc(C(F)(F)F)cc2)c1 [Example 42, (R)—N-(3-Cyanophenyl)-8-(4-(trifluoromethyl)phenyl)-5,6-dihydro-1,7-naphthyridine-7(8H)-carboxamide]",< 5
13,"O=C(Nc1ccc(F)cc1)N1CCc2cccnc2C1c1ccc(F)cc1 (stereo not shown) [Example 46, N,8-Bis(4-fluorophenyl)-5,6-dihydro-1,7-naphthyridine-7(8H)-carboxamide]",< 5
14,"O=C(Nc1ccc(F)cc1)N1CCc2cccnc2C1c1ccc(-c2ccccc2)cc1 (stereo not shown) [Example 47, N-(4-Fluorophenyl)-8-(4-biphenyl)-5,6-dihydro-1,7-naphthyridine-7(8H)-carboxamide]",< 5
15,"O=C(Nc1ccc(F)cc1)N1CCc2c(-c3ccc(F)cc3)ccnc2[C@H]1c1ccc(C(F)(F)F)cc1 [Example 54, (R)—N,4-bis(4-fluorophenyl)-8-(4-(trifluoromethyl)phenyl)-5,6-dihydro-1,7-naphthyridine-7(8H)-carboxamide]",< 5
16,"Cc1ccnc2c1CCN(C(=O)Nc1ccc(F)cc1)[C@@H]2c1ccc(C(F)(F)F)cc1 [Example 55, (R)—N-(4-fluorophenyl)-4-methyl-8-(4-(trifluoromethyl)phenyl)-5,6-dihydro-1,7-naphthyridine-7(8H)-carboxamide]",< 5

# The remaining lines, values ahead:
row,IC50 [µM],Compound
1,< 5,"C[C@@H]1Cc2cccnc2[C@H](c2ccc(C(F)(F)F)cc2)N1C(=O)Nc1ccc(F)cc1 (racemic) [Example 48, (6R,8)-N-(4-Fluorophenyl)-6-methyl-8-(4-(trifluoromethyl)phenyl)-5,6-dihydro-1,7-naphthyridine-7(8H)-carboxamide and (6S,8R)—N-(4-fluorophenyl)-6-methyl-8-(4-(trifluoromethyl)phenyl)-5,6-dihydro-1,7-naphthyridine-7(8H)-carboxamide]"
2,< 5,"C[C@@H]1CN(C(=O)Nc2ccc(F)cc2)[C@H](c2ccc(C(F)(F)F)cc2)c2ncccc21 (racemic) [Example 49, (5S,8R)—N-(4-Fluorophenyl)-5-methyl-8-(4-(trifluoromethyl)phenyl)-5,6-dihydro-1,7-naphthyridine-7(8H)-carboxamide and (5R,8S)—N-(4-fluorophenyl)-5-methyl-8-(4-(trifluoromethyl)phenyl)-5,6-dihydro-1,7-naphthyridine-7(8H)-carboxamide]"
3,< 5,"CCOC(=O)N1C=Cc2ncccc2C1c1ccc(C(F)(F)F)cc1 (stereo not shown) [Example 1, Ethyl 5-(4-(trifluoromethyl)phenyl)-1,6-naphthyridine-6(5H)-carboxylate]"
4,< 5,"CCOC(=O)N1C=Cc2cccnc2C1c1ccc(C(F)(F)F)cc1 (stereo not shown) [Example 5, Ethyl 8-(4-(trifluoromethyl)phenyl)-1,7-naphthyridine-7(8H)-carboxylate]"
5,< 5,"CCOC(=O)N1C=Cc2nccnc2C1c1ccc(C(F)(F)F)cc1 (stereo not shown) [Example 12, Ethyl 5-(4-(trifluoromethyl)phenyl)pyrido[3,4-b]pyrazine-6(5H)-carboxylate]"
6,< 5,"COc1ccccc1NC(=O)N1CCc2cccnc2[C@H]1c1ccc(C(F)(F)F)cc1 [Example 20, (R)—N-(2-methoxyphenyl)-8-(4-(trifluoromethyl)phenyl)-5,6-dihydro-1,7-naphthyridine-7(8H)-carboxamide]"
7,< 5,"O=C(Nc1ccccc1F)N1CCc2cccnc2[C@H]1c1ccc(C(F)(F)F)cc1 [Example 21, (R)—N-(2-fluorophenyl)-8-(4-(trifluoromethyl)phenyl)-5,6-dihydro-1,7-naphthyridine-7(8H)-carboxamide]"
8,< 5,"O=C(Nc1ccc(Cl)cc1)N1CCc2cccnc2[C@H]1c1ccc(C(F)(F)F)cc1 [Example 23, (R)—N-(4-chlorophenyl)-8-(4-(trifluoromethyl)phenyl)-5,6-dihydro-1,7-naphthyridine-7(8H)-carboxamide]"
9,< 5,"O=C(Nc1ccc(F)c(F)c1)N1CCc2cccnc2[C@H]1c1ccc(C(F)(F)F)cc1 [Example 26, (R)—N-(3,4-difluorophenyl)-8-(4-(trifluoromethyl)phenyl)-5,6-dihydro-1,7-naphthyridine-7(8H)-carboxamide]"
10,< 5,"Cc1noc(C)c1NC(=O)N1CCc2cccnc2[C@H]1c1ccc(C(F)(F)F)cc1 [Example 27, (R)—N-(3,5-dimethylisoxazol-4-yl)-8-(4-(trifluoromethyl)phenyl)-5,6-dihydro-1,7-naphthyridine-7(8H)-carboxamide]"
11,< 5,"CC(C)(C)NC(=O)N1CCc2cccnc2[C@H]1c1ccc(C(F)(F)F)cc1 [Example 28, (R)—N-tert-butyl-8-(4-(trifluoromethyl)phenyl)-5,6-dihydro-1,7-naphthyridine-7(8H)-carboxamide]"
12,< 5,"O=C(Nc1ccccn1)N1CCc2cccnc2[C@H]1c1ccc(C(F)(F)F)cc1 [Example 30, (R)—N-(pyridin-2-yl)-8-(4-(trifluoromethyl)phenyl)-5,6-dihydro-1,7-naphthyridine-7(8H)-carboxamide]"
13,< 5,"O=C(NCc1ccccc1)N1CCc2cccnc2[C@H]1c1ccc(C(F)(F)F)cc1 [Example 32, (R)—N-benzyl-8-(4-(trifluoromethyl)phenyl)-5,6-dihydro-1,7-naphthyridine-7(8H)-carboxamide]"
14,< 5,"COc1ccc(NC(=O)N2CCc3cccnc3[C@H]2c2ccc(C(F)(F)F)cc2)cc1 [Example 35, (R)—N-(4-methoxyphenyl)-8-(4-(trifluoromethyl)phenyl)-5,6-dihydro-1,7-naphthyridine-7(8H)-carboxamide]"
15,< 5,"N#Cc1ccccc1NC(=O)N1CCc2cccnc2[C@H]1c1ccc(C(F)(F)F)cc1 [Example 41, (R)—N-(2-Cyanophenyl)-8-(4-(trifluoromethyl)phenyl)-5,6-dihydro-1,7-naphthyridine-7(8H)-carboxamide]"
16,< 5,"O=C(OCc1ccccc1)N1C=Cc2cccnc2C1c1ccc(C(F)(F)F)cc1 (stereo not shown) [Example 43, Benzyl 8-(4-(trifluoromethyl)phenyl)-1,7-naphthyridine-7(8H)-carboxylate]"
17,< 5,"CCOC(=O)N1C=Cc2cccnc2C1c1ccc(F)cc1 (stereo not shown) [Example 44, Ethyl 8-(4-fluorophenyl)-1,7-naphthyridine-7(8H)-carboxylate]"
18,< 5,"CCOC(=O)N1CCc2cccnc2C1c1ccc(F)cc1 (stereo not shown) [Example 45, Ethyl 8-(4-fluorophenyl)-5,6-dihydro-1,7-naphthyridine-7(8H)-carboxylate]"
